Measured values: US20230286973A1, “PROTEIN SECRETION INHIBITORS” (KEZAR LIFE SCIENCES, priority 2020, published 2023)

How the values were obtained:
[1] = test system: IL-2-FL/Gaussia Luciferase; test: Dox Induced IL2-FL-Gluc Assay; format: cell-based; conditions: for IC50: 24 hr Dox induction, 293FRT/TO cells, read-out: 24 hr Dox Inducible IL2FLGluc 293FRT/TO: Mean IC50; for 24 hr Dox Inducible IL2FLGluc 293FRT/TO: IL2/PD1: ratio of IL2FLGluc IC50 to PD1ssGluc IC50
Procedure, shortened: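 A hygromycin- and blasticidin-resistant 293 T-REx clone carrying inducible IL-2–Gaussia luciferase (full-length IL-2, residues 1-153) serves as the cell system. After overnight plating, the cells get test compounds together with doxycycline in DMSO/media and are incubated at 37° C, 5% CO2.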

[2] = test system: multiple myeloma cell line NCI-H929; test: H929 Cell Viability Assay; format: cell-based, human; conditions: Homo sapiens, NCI-H929, 48 h, NCI-H929 cells, Celltiter-Glo
Procedure, shortened: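 A 48-hour compound treatment of cells in 10% FBS RPMI medium was followed by luciferase-based viability quantification.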

[3] = Liver Microsome Stability Assay (mouse); conditions: mouse liver microsomes, with NADPH, 1.0 uM compound
Description: (§1) Stability of a compound was assessed in the presence of liver microsomes from various sources—mouse, rat, monkey and human liver microsomes. 1.0 uM compound, 0.4% DMSO in 0.1 M Potassium Phosphate with 1.0 mg/mL liver microsomes, were incubated at 37° C. with or without 1 mM NADPH. The samples were quenched at 0, and 30 minutes.

[4] = Liver Microsome Stability Assay (rat); conditions: rat liver microsomes, with NADPH, 1.0 uM compound
Description: as §1

[5] = test system: HER3-ss+4aa/Gaussia Luciferase; test: Dox-Induced Her3-ss-Gluc Assay; format: cell-based; conditions: 24 hr Dox induction; 293FRT/TO cells; read-out: 24 hr Dox Inducible Her3(ss + 4)Gluc 293FRT/TO: Mean IC50
Procedure, shortened: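 Doxycycline-inducible HER3 signal sequence+4aa/Gaussia luciferase construct, stably integrated in Flp-In 293 T-REx cells; compound dilutions applied with doxycycline at 37° C., 5% CO2.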

[6] = test system: TNFα-FL/Gaussia Luciferase; test: Dox Induced TNFα-FL-Gluc Assay; format: cell-based; conditions: for IC50: 24 hr Dox induction, 293FRT/TO cells, read-out: 24 hr Dox Inducible TNFaFLGluc 293FRT/TO: Mean IC50; for 24 hr Dox Inducible TNFaFLGluc 293FRT/TO: TNF/PD1: ratio of TNFaFLGluc IC50 to PD1ssGluc IC50
Procedure, shortened: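 Hygromycin/blasticidin-selected Flp-In 293 T-REx cells, TNFα-FL/Gaussia luciferase fusion under T-REx control; overnight plating, then compound in DMSO/media with doxycycline at 37 °C, 5% CO2; stereo-undefined structures tested as mixtures.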

[7] = test system: multiple myeloma cell line U266B1; test: U266 Cell Viability Assay; format: cell-based, human; conditions: Homo sapiens, U-266, 48 h, U266B1 cells, Celltiter-Glo
Procedure, shortened: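 After growth in serum-supplemented RPMI 1640, cells received serially diluted compound in DMSO/media and were kept 48 hours before a CellTiter-Glo luminescence readout.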

[8] = Liver Microsome Stability Assay (human); conditions: human liver microsomes, with NADPH, 1.0 uM compound
Description: as §1

[9] = test system: PD1-ss+10aa/Gaussia Luciferase; test: Dox-Induced PD1-ss-Gluc Assay; format: cell-based; conditions: 24 hr Dox induction; 293FRT/TO cells; read-out: 24 hr Dox Inducible PD1ssGluc 293FRT/TO: Mean IC50
Procedure, shortened: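 The cell line was made by transfecting Flp-In 293 T-REx cells with a PD1 signal sequence+10aa–Gaussia luciferase fusion under T-REx control and selecting with hygromycin and blasticidin. Cells were seeded, and next day compound plus doxycycline was added at 37 °C, 5% CO2.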

[10] = Liver Microsome Stability Assay (monkey); conditions: monkey liver microsomes, with NADPH, 1.0 uM compound
Description: as §1

Row | Compound | IC50 [1] | 24 hr Dox Inducible IL2FLGluc 293FRT/TO: IL2/PD1 [1] | EC50 [2] | Liver Microsome Stability (Multiple Species): Mouse - % Remaining after 30 min w/NADPH [3] | Liver Microsome Stability (Multiple Species): Rat - % Remaining after 30 min w/NADPH [4] | IC50 [5] | IC50 [6] | 24 hr Dox Inducible TNFaFLGluc 293FRT/TO: TNF/PD1 [6] | EC50 [7] | Liver Microsome Stability (Multiple Species): Human - % Remaining after 30 min w/NADPH [8] | IC50 [9] | Liver Microsome Stability (Multiple Species): Monkey - % Remaining after 30 min w/NADPH [10]
1 | COC(=O)Nc1ccc(N2CCC[C@@H]2c2csc(NC(=O)c3cccn3Cc3ccnc(F)c3)n2)nc1 [Compound A175, methyl (R)-(6-(2-(2-(1-((2-fluoropyridin-4-yl)methyl)-1H-pyrrole-2-carboxamido)thiazol-4-yl)pyrrolidin-1-yl)pyridin-3-yl)carbamate] | 12.9 nM | 4.3 | 188 nM | 1.57% | 0.32% | 7.95 nM | 80.7 nM | 26.7 | > 25000 nM | 1.38% | 3.02 nM | 0.22%
2 | CC(=O)N1CC(CCc2ccc(N3CCC[C@@H]3c3csc(NC(=O)c4cccn4Cc4ccnc(F)c4)n3)cc2)C1 [Compound A176] | 41.8 nM | 2.8 | 438 nM | 2.72% | 18.6% | 31 nM | 487 nM | 32.4 | > 25000 nM | 1.34% | 15 nM | 0.16%
3 | O=C(Nc1ccc(N2CCC[C@@H]2c2csc(NC(=O)c3cccn3Cc3ccnc(F)c3)n2)cc1)OC1COC1 [Compound A177, oxetan-3-yl (R)-(4-(2-(2-(1-((2-fluoropyridin-4-yl)methyl)-1H-pyrrole-2-carboxamido)thiazol-4-yl)pyrrolidin-1-yl)phenyl)carbamate] | 2.79 nM | 3 | 16.2 nM | 29.1% | 57.1% | 2.39 nM | 25.8 nM | 27.6 | > 25000 nM | 39.3% | 0.93 nM | 9.52%
4 | O=C(Nc1ccc(N2CCC[C@@H]2c2csc(NC(=O)c3cccn3Cc3ccnc(F)c3)n2)cc1)OC1CNC1 [Compound A178, azetidin-3-yl (R)-(4-(2-(2-(1-((2-fluoropyridin-4-yl)methyl)-1H-pyrrole-2-carboxamido)thiazol-4-yl)pyrrolidin-1-yl)phenyl)carbamate] | 107 nM | 4.5 | 525 nM | 70.6% | 51.4% | 76.3 nM | 931 nM | 39 | 7400 nM | 72.8% | 23.9 nM | 70.8%
5 | CC(=O)N1CC(OC(=O)Nc2ccc(N3CCC[C@@H]3c3csc(NC(=O)c4cccn4Cc4ccnc(F)c4)n3)cc2)C1 [Compound A179, 1-acetylazetidin-3-yl (R)-(4-(2-(2-(1-((2-fluoropyridin-4-yl)methyl)-1H-pyrrole-2-carboxamido)thiazol-4-yl)pyrrolidin-1-yl)phenyl)carbamate] | 9.01 nM | 3.4 | 70.5 nM | 34.8% | 69.3% | 6.96 nM | 138 nM | 52.3 | > 25000 nM | 21.3% | 2.63 nM | 15.4%
6 | COC(=O)Nc1ccc(N2CCC[C@@H]2c2csc(NC(=O)c3cc(C)cn3Cc3ccnc(F)c3)n2)nc1 [Compound A180, methyl (R)-(6-(2-(2-(1-((2-fluoropyridin-4-yl)methyl)-4-methyl-1H-pyrrole-2-carboxamido)thiazol-4-yl)pyrrolidin-1-yl)pyridin-3-yl)carbamate] | 14.3 nM | 52.35 | 715 nM | 14.4% | 3.14% | 3.7 nM | 49.8 nM | 440.37 | > 25000 nM | 8.99% | 4.95 nM | 7.35%
7 | O=C(Nc1nc(/C=C/c2cocn2)cs1)c1cccn1Cc1ccncc1 [Compound B1, (E)-N-(4-(2-(oxazol-4-yl)vinyl)thiazol-2-yl)-1-(pyridin-4-ylmethyl)-1H-pyrrole-2-carboxamide] | 19900 nM | 160 | > 25000 nM | 5.93% | 4.96% | 13000 nM | > 25000 nM | >194 | > 25000 nM | 1.81% | 129 nM | 1.07%
8 | Cc1nc(/C=C/c2csc(NC(=O)c3cccn3Cc3ccncc3)n2)co1 [Compound B2, (E)-N-(4-(2-(2-methyloxazol-4-yl)vinyl)thiazol-2-yl)-1-(pyridin-4-ylmethyl)-1H-pyrrole-2-carboxamide] | > 25000 nM | 110 | > 25000 nM | 7.06% | 1.8% | > 25000 nM | > 25000 nM | >114 | > 25000 nM | 0.69% | 220 nM | 0.9%
9 | O=C(Nc1nc(/C=C/c2ccon2)cs1)c1cccn1Cc1ccncc1 [Compound B5, (E)-N-(4-(2-(isoxazol-3-yl)vinyl)thiazol-2-yl)-1-(pyridin-4-ylmethyl)-1H-pyrrole-2-carboxamide] | > 25000 nM | 12 | > 25000 nM | 1.26% | 0.69% | > 25000 nM | > 25000 nM | >11.6 | > 25000 nM | 0.87% | 2160 nM | 0.47%
10 | CN1CCOC(/C=C/c2csc(NC(=O)c3cccn3Cc3ccncc3)n2)C1 (stereo not drawn) [Compound B6, (E)-N-(4-(2-(4-methylmorpholin-2-yl)vinyl)thiazol-2-yl)-1-(pyridin-4-ylmethyl)-1H-pyrrole-2-carboxamide] | > 25000 nM | 5.7 | > 25000 nM | 10% | 13.2% | > 25000 nM | > 25000 nM | >5.68 | > 25000 nM | 5.85% | 4400 nM | 6.93%
